This data set is described as follows: Measurement of calcium-chelating constant (Ca2+ ion electrode, pH 10 buffer). The format is physicochemical. The following applies: 0.1 mol/L NH4Cl-NH4OH buffer pH 10; 1:1 chelate complex assumed. As to the method:
As used herein, the “calcium-chelating constant” refers a value determined by the following method. A solution of 0.1 mol/L NH4Cl-NH4OH (pH 10) is prepared as a buffer. The buffer is used for preparing all sample solutions. To measure a concentration of Ca^2+, an ion meter, Orion […], and a Ca^2+ ion electrode are used. First, a relationship between calcium chloride concentration and potential of the electrode is determined to generate a calibration curve. […] A concentration of remaining Ca^2+ is measured using the Ca^2+ ion electrode. […] [formula] [M]total: initial Ca^2+ concentration [L]total: initial chelating agent concentration [M]: remaining Ca^2+ concentration

In the case of `O=C(O)CC(O)(CC(=O)O)C(=O)O` [citric acid], the calcium-chelating constant was determined as 3.
As for `O=C(O)CN(CCN(CC(=O)O)CC(=O)O)CC(=O)O` [EDTA, ethylenediaminetetraacetic acid], the figure is 12.
